Experimental data published in patent US5369111A, “Modulator agent and use thereof” (University of Vermont, priority 1992, dated 1994).

Legend:
[1] = Inhibition of population growth (cytotoxicity), rat colon adenocarcinoma RCC-5; format: cell-based; settings: rat, rcc-5 cells; RCC-5; Table III; read-out: Modulator concentration (nontoxic concentration limit of the analog)
Excerpt: (§1) The analogs were examined in a panel of tumor cell lines of both intrinsic and acquired drug resistance, as described in Table 1. The rat colon adenocarcinoma cell lines RCC-2 and RCC-5 (ref. 13) were maintained in Ham's F12 medium supplemented with 5% heat-inactivated, fetal bovine serum (Sterile Systems. Hyclone, Logan, Utah). The two rat colon cancer cell lines differ in their degree of cellular differentiation; whereas the RCC-2 cell line is undifferentiated, the RCC-5 cell line is highly mucinous. The human epidermoid carcinoma cell line KB-3-1 and its MDR variant KB-Vl, selected by VBL treatment (ref. 14; courtesy of M. Gottesman. National Cancer Institute), was maintained in DMEM medium supplemented with 10%, heat-inactivated, fetal bovine serum. The murine sarcoma cell line […] and its MDR strains A3 and A10 selected by ADM treatment (ref. 15; courtesy of T. Tritton, Dept. Pharmacology, Univ. Vermont). were maintained in DMEM medium supplemented with 10% heat-inactivated, horse serum (Hazelton Biolog. Lenexa, Kans.). Stock cultures were subcultured twice weekly upon reaching the late exponential phase of population growth: population doubling times were 18-24 h. Antibiotics were not used in stock or experimental cultures. The MDR cell strains were grown in drug-free media for 48 h prior to experimental use.
(§2) Mid-exponential cultures were used for all assays. The RCC-2 and RCC-5 cell lines were seeded into 24-well plates at 2×10^4 cells/well and allowed to attach to the substratum for 16-18 h prior to treatment. The S180 cell lines were seeded into culture tubes at 1×10^5 cells/ml and treated immediately. Cytotoxicity was determined by quantitation of population growth after 72 h incubation by electronic particle counter (Coulter Electronics, Hialeah, Fla.). The human tumor cell lines were used in a clonogenic assay for cytotoxicity. Cells were seeded at 300 cells/dish, incubated overnight and then treated. Colonies were scored 7-11 days later. In all assays of analog modulation of drug sensitivity, the analog was added minutes prior to the addition of cytotoxic drug.

[2] = system: RCC-2 cells; experiment: Modulation of intrinsic drug resistance, RCC-2; format: cell-based, rat; settings: IC50 drug alone / IC50 drug + modulator, at nontoxic concentration limit
Procedure: as §2
(§3) *calculated as the IC50 of the drug alone divided by the IC50 o
(§4) the [drug modulator] combination. Data are presented from tretments with
(§5) the nontoxic concentration limit of each analog as noted.

[3] = system: S180/MDR cell system and rat colon cancer cell lines; experiment: Cytotoxicity in the S180/MDR cell system and the rat colon cancer cell lines; format: cell-based, mouse; settings: S-180, 72 h
Excerpt: as §1, §2

[4] = system: S180 MDR cell strains A3 and A10; experiment: Modulation of acquired drug resistance in the S180 MDR cell strains A3 and A10; format: cell-based, murine; settings: VBL
Procedure: as §2
(§6) To evaluate the ability of vindoline and the two diastereoisomeric VBL analogs to modulate the MDR phenotype (acquired resistance) of the A3 and A10 cell stains, we determined the concentration of compound required to restore drug sensitivities to parental levels. This was done by exposing the MDR cell line to a concentration range of modulator in the presence VBL, VCR and ADM at the respective IC70s of the parental cell line. The cytotoxicity curves for A3 and A10 cells, shown in FIG. 5, are distinctive among the three vinca alkaloids examined. In each cell line, there was a minimum concentration of modulator that elicited 70% growth inhibition for each drug - i.e. the reversing concentration.
FIG. 5 represents the modulation of multidrug resistance in the MDR cell strains by the vinca alkaloids. Vindoline (A), vincovaline (B), or the analog C-20'-deoxy vincovaline (C) was added, at various concentrations, to A3 (closed symbols) or A10 (opened symbols) cell cultures containing the parental IC70 of each drug: 2.0×10^-7 M. ADM (circles: 1.5×10^-8 M VBL (triangles); and 4.5×10^-8 M; VCR (squares). Population growth was determined 72 hours later.
FIG. 6 represents the relationship between cellular drug resistance level and the minimal modulator concentration required for complete reversal of drug resistance. The drugs examined were ADM (o), VBL (Δ), and VCR (.quadrature.). The amount (concentration) of modulator, necessary to reverse each level of drug resistance contained in the A3 and A10 cell lines, was determined from data such as those of FIG. 5. The values presented were averaged from duplicate samples of two separate experiments, S.D.<15% of the mean. The arrows denote the non-toxic concentration limit for the modulator; in the case of Vincovaline this value is dependent on the MDR cell strain, 2×10^-5 M, A3; 5×10^-5 M. A10.
FIG. 11 represents the modulation of multidrug resistance in the S180 MDR cell strains A3 and A10. The cellular drug resistance level is plotted against the minimal concentration of C-20'-deoxy deethyl vincovaline required for the complete reversal of drug resistance to ADM (o), VBL (Δ), and VCR (.quadrature.). In the case of high level ADM resistance […], the sensitivity of the cells was restored to 80% of the parental value. The arrow denotes the non-toxic concentration limit of the analog.

[5] = system: S180/A3 cells; experiment: Modulator potency in MDR cells: reversal of acquired resistance, S180/A3; format: cell-based, murine; settings: for Modulator potency in MDR cells (minimal concentration restoring parental drug sensitivity), VBL: drug resistance level 3; for Modulator potency in MDR cells (minimal concentration restoring parental drug sensitivity), VCR: drug resistance level 7
Procedure: as §2, §6
(§7) *The minimal concentration of modulator required to restore the drug
(§8) sensitivity of S180/MDR cell strains to that of parental S180 cells. Data
(§9) are the averages of 2-3 separate experiments, S.D. ≤20%.

[6] = system: RCC-5 cells; experiment: Modulation of intrinsic drug resistance, RCC-5; format: cell-based, rat; settings: RCC-5; IC50 drug alone / IC50 drug + modulator, at nontoxic concentration limit
Procedure: as §2, §3, §4, §5
FIG. 9 represents the modulation of VCR sensitivity in the RCC-12 (A) and RCC-5 (B) cell lines by the analog C-20'-deoxy deethyl vincovaline. Population growth was determined after 72 hours incubation in the absence (o), or presence of 10 μM (o), 20 μM (Δ), or 50 μM of analog. Data presented are from a typical experiment.

[7] = system: parental cell lines (S180, RCC-2, RCC-5); experiment: Modulation of intrinsic resistance in the parental cell lines (S180, RCC-2, RCC-5); format: cell-based, mouse, rat
Procedure: as §2, §3, §4, §5

[8] = Inhibition of population growth (cytotoxicity), rat colon adenocarcinoma RCC-2; format: cell-based; settings: rat, rcc-2 cells; RCC-2; Table III; read-out: Modulator concentration (nontoxic concentration limit of the analog)
Excerpt: as §1, §2

[9] = system: S180/A10 cells; experiment: Modulator potency in MDR cells: reversal of acquired resistance, S180/A10; format: cell-based, murine; settings: for Modulator potency in MDR cells (minimal concentration restoring parental drug sensitivity), ADM: drug resistance level 90; for Modulator potency in MDR cells (minimal concentration restoring parental drug sensitivity), VBL: drug resistance level 10
Procedure: as §2, §6, §7, §8, §9

[10] = system: S180 cells, parental; experiment: Modulation of intrinsic drug resistance, parental S180; format: cell-based, murine; settings: S180; IC50 drug alone / IC50 drug + modulator, at nontoxic concentration limit
Procedure: as §2
The ability of the compounds to modulate drug sensitivity in parental cells was studied over a range of concentrations of each compound, from 10^-6 M to the non-toxic (IC10-20) or solubility limit. […] From such experiments, we determined a sensitivity index derived from the IC50 of the drug without modulator treatment divided by the drug IC50 at each concentration of modulator.
When the sensitivity index for each drug, VBL, VCR and ADM is plotted versus the modulator concentration (FIG. 4), we can compare the relative potencies of the compounds as modulators of drug toxicity to the parental S180 cells.
as §3, §4
FIG. 4 represents the potency of the vinca alkaloid compounds as modulators of drug sensitivity in S180 cells. The enhancement of sensitivity was calculated as the sensitivity index=IC50 of the drug alone divided by the IC50 of the drug+modulator. The IC50s for ADM (o) VBL (Δ), or VCR (.quadrature.) were determined over a concentration range of each modulator from data such as those depicted in FIG. 3. The values presented were averaged from duplicate samples of two separate experiments, S.D. <15% of the mean.

[11] = Inhibition of population growth (cytotoxicity), S180 sarcoma, parental; format: cell-based, mouse; settings: mouse, s180 cells; S180; Table III; read-out: Modulator concentration (nontoxic concentration limit of the analog)
Excerpt: as §1, §2

Compound	MNTC at 72 h [1]	Maximum sensitization of parental cells by modulator, drug ADM [2]	Maximum sensitization of parental cells by modulator, drug VCR [2]	IC50 [3]	Modulator potency in MDR cells (minimal concentration restoring parental drug sensitivity), VBL [5]	Modulator potency in MDR cells (minimal concentration restoring parental drug sensitivity), VCR [5]	Maximum sensitization of parental cells by modulator, drug ADM [6]	Maximum sensitization of parental cells by modulator, drug VBL [6]	Maximum sensitization of parental cells by modulator, drug VCR [6]	modulation of intrinsic cellular resistance to ADM and/or VCR (in words) ([7]; VCR)	effect on the sensitivity of parental cells to VBL (in words) [7]	MNTC at 72 h [8]	Modulator potency in MDR cells (minimal concentration restoring parental drug sensitivity), ADM ([9]; ADM)	Modulator potency in MDR cells (minimal concentration restoring parental drug sensitivity), VBL [9]	Maximum sensitization of parental cells by modulator, drug ADM [10]	Maximum sensitization of parental cells by modulator, drug VBL [10]	Maximum sensitization of parental cells by modulator, drug VCR [10]	MNTC at 72 h [11]	also measured
CC[C@]12C=CCN3CC[C@@]4(c5cc([C@@]6(C(=O)OC)C[C@H]7CCCN(CCc8c6[nH]c6ccccc86)C7)c(OC)cc5N(C)[C@H]4[C@@](O)(C(=O)OC)[C@@H]1OC(C)=O)[C@@H]32 [analog n° 330, C-14'-epi-C-20'-deethyl C-20'-deoxy-vinblastine]	10 µM	1.0	2.0	≥ 5 µM	5.2 µM	11. μM	2.2	2.0	6.0	modulated intrinsic cellular resistance to ADM and/or VCR	less effect on the sensitivity of parental cells to VBL	10 µM	no effect	18. μM	4.2	1.0	2.0	20 µM	restoration of parental drug sensitivity in MDR cells (in words) ([4]; VCR, ADM): full restoration of parental drug sensitivity was achieved for VBL and low level VCR resistance, only
CC[C@H]1C[C@@H]2CN(CCc3c([nH]c4ccccc34)[C@](C(=O)OC)(c3cc4c(cc3OC)N(C)[C@H]3[C@@](O)(C(=O)OC)[C@H](OC(C)=O)[C@]5(CC)C=CCN6CC[C@]43[C@@H]65)C2)C1 [analog n° 354, C-20'-deoxy-C-16', 20' epi VBL]	5 µM	1.9	4.0	≥ 5 µM	1.7 µM	10.0 µM	5.3	1.9	18.0	modulated intrinsic cellular resistance to ADM and/or VCR	less effect on the sensitivity of parental cells to VBL	5 µM	40. μM	10.0 µM	5.0	1.0	3.0	20 µM	Maximum sensitization of parental cells by modulator, drug VBL [2]: 1.2; range of resistance levels over which parental sensitivity was restored ([4]; VCR and ADM): 3-90 fold; Modulator potency in MDR cells (minimal concentration restoring parental drug sensitivity), ADM ([5]; ADM, drug resistance level 15): 25. μM; enhancement of VCR cytotoxicity in the parental cell lines ([7]; VCR): 7-18 fold; reversal of high level ADM resistance ([9]; ADM, 90-fold resistance, A10): 80%; Modulator potency in MDR cells (minimal concentration restoring parental drug sensitivity), VCR ([9]; VCR, drug resistance level 17): 20.0 µM
